Like-named read-outs stand apart in the source and are kept apart here. Bounds are passed on as bounds.

The assay addresses T1, human GLP1R (Homo sapiens, UniProt P43220).
T1 construct: expressed in transfected cells; host or cells: CHO cells (ATCC), transient transfection with pCMV-human GLP1R
Description: Human GLP-1 receptor transfected cell assay (MRE/CRE-luciferase reporter gene, agonist activity). To be noted: 6 h; for activation at 1 µM: concentration 1 μM; for activation at 3 µM: concentration 3 μM. It counts as cell-based. The protocol:
The glucagon-like peptide I receptor (GLP1R) is a class B Gs-coupled membrane receptor, an agonist of which activates adenylate cyclase (AC) and elevates intracellular cAMP level. In turn, the high content of secondary messengers can activate the cAMP response element binding protein (CREB), which can translocate into nucleus to activate gene transcription.
A reporter gene based screening assay was established to measure the effect of a compound on GLP1R. In this assay, a compound was incubated with CHO cells transiently transfected with a human GLP1R plasmid and a multiple response element (MRE)/cAMP response element (CRE)-driven luciferase reporter plasmid. Once luciferase was induced by the compound, its specific substrate can be activated to produce light signal for measurement.
Materials used in this assay included: (i) cell line: Chinese hamster ovary (CHO) cells (ATCC); (ii) fetal bovine serum (FBS) (Biochrom Co.); (iii) culture medium: RPMI1640 (Invitrogen Co.) supplemented with 10% FBS; (iv) LIPOFECTAMINE™ 2000 Reagent (Invitrogen Co.); (v) plasmids: pCMV-human GLP1R and pGL3-1905 reporter plasmid; (vi) GLP1 (7-36 amide) peptide (Sigma Co.); and (vii) BRIGHT-GLO™ Luciferase Assay System (Promega Co.).
Instruments used in this assay included: (i) Form a carbon dioxide incubator (Thermo Form a Co.); and (ii) Flexstation 3 (Molecular Device Co.).
Before transfection, CHO cells were plated into a 6-well culture plate at 800,000/2 mL/well, and cultured at 37° C. in 5% CO2 overnight. On the transfection day, cells were transfected with receptor plasmid and reporter plasmid using LIPOFECTAMINE™ 2000 reagent. After 6-hour transfection, cells were digested and seeded into 96-well plates at 20,000/100 μL/well. After 14-16 hour incubation, transfected cells were washed with 100 μL serum-free RPMII 640 medium first, and then added 50 μL of the culture medium. The GLP-1 standard and test compounds were respectively diluted to a series of concentrations, which were then added into the above 96-well culture plate at 50 μL/well. The cells were incubated at 37° C. in 5% CO2 for 6 hrs. The activity of luciferase was detected using BRIGHT-GLO™ Luciferase Analytic System, and the reading was performed with a Flexstation3 plate reader machine.
(Reporter assays use an easily measured gene product as a stand-in for the process of interest.)

[1] abbreviates: concentration 10 μM, read-out: Activity (agonist), percentage of the activity of the control.
Where [2] appears, read: read-out: Activity (agonist), percentage of the activity of the control.
Setting [3] is: concentration 3.16 μM, read-out: Activity (agonist), percentage of the activity of the control.
Setting [4] is: conc. 10 μM, percentage of the activity of the control, read-out: Agonist Activity.

T1 sequence (P43220 24-463): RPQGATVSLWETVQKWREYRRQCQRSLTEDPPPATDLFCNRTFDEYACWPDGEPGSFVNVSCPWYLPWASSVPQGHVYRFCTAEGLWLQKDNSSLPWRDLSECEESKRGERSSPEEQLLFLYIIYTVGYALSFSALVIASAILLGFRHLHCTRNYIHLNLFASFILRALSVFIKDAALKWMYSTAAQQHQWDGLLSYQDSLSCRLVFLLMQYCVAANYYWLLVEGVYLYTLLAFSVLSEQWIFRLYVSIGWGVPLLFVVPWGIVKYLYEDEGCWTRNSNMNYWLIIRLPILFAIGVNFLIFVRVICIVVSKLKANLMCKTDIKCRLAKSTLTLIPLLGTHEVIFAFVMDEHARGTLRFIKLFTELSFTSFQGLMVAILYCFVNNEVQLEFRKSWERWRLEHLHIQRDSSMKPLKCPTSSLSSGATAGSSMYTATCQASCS

For the molecule `CC(C)(C)OC(=O)Nc1ccc(-c2nc(-c3ccc(CC(NC(=O)Nc4ccc(-c5ccc(F)cc5)cn4)C(=O)O)cc3F)no2)cc1` (stereo not drawn) [Compound 4X], under setting [1], the activation at 10 µM is greater than 60%.
On to `CC(C)(C)OC(=O)Nc1ccc(-c2nc(-c3ccc(CC(NC(=O)c4cccc(-c5ccc(Cl)cc5)c4F)C(=O)O)cc3F)no2)cc1` (stereo not drawn) [Compound 1S], for which the activation at 10 µM under setting [1] lay within 40 to 60%.
As to `Cc1cccc(-c2ccc(C(=O)NC(Cc3ccc(-c4noc(-c5ccc(NC(=O)OC(C)(C)C)cc5)n4)c(F)c3)C(=O)O)o2)c1` (stereo not drawn) [Compound 1K], the activation at 10 µM under setting [1] was greater than 60%.
On the same count and under the same terms, for `CC(C)(C)OC(=O)Nc1ccc(-c2nc(-c3ccc(C[C@@H](NC(=O)c4cccc(-c5ccc(Cl)c(F)c5)c4)C(=O)O)cc3F)no2)cc1` [Compound 6F] the value was greater than 60%.
For `Cc1ccc(-c2ccc(C(=O)N[C@H](Cc3ccc(-c4noc(-c5ccc(NC(=O)OC(C)(C)C)cc5)n4)cn3)C(=O)O)o2)cc1` [Compound 6Q], the activation at 1 µM under setting [2] was in the range of 40 to 60%.
With `CC(=O)N(Cc1ccc(-c2ccc(C)cc2)o1)C(Cc1ccc(-c2noc(-c3ccc(NC(=O)OC(C)(C)C)cc3)n2)c(F)c1)C(=O)O` (stereo not drawn) [Compound 5G], the activation at 10 µM under setting [1] is greater than 60%.
For the molecule `Cc1ccc(-c2cccc(C(=O)N[C@H](Cc3ccc(-c4noc(-c5ccc(NC(=O)OC(C)(C)C)cc5)n4)c(F)c3)C(=O)O)c2)o1` [Compound 6I], the activation at 3 µM under setting [2] is 20 to 40%.
Regarding `CC(C)c1ccc(-c2ccc(C(=O)NC(Cc3ccc(-c4noc(-c5ccc(NC(=O)OC(C)(C)C)cc5)n4)c(F)c3)C(=O)O)o2)cc1` (stereo not drawn) [Compound 1O], under setting [3], the activation at 3.16 µM was in the range of 20 to 40%.
As for `Cc1ccc(-c2ccc(C(=O)NC(Cc3ccc(-c4noc(-c5ccc(NC(=O)OC(C)(C)C)cc5)n4)c(C#N)c3)C(=O)O)o2)cc1` (stereo not drawn) [Compound 13I], the activation at 10 µM under setting [4] is 40 to 60%.
As to `Cc1ccc(-c2cccc(C(=O)NC(Cc3ccc(-c4noc(C(=O)N5CCC(C)CC5)n4)c(F)c3)C(=O)O)c2)cc1` (stereo not drawn) [Compound 5U], the activation at 10 µM under setting [1] is greater than 60%.
`CC(C)(C)OC(=O)Nc1ccc(-c2nc(-c3ccc(CC(NC(=O)c4cncc(-c5ccc(F)cc5)c4)C(=O)O)cc3F)no2)cc1` (stereo not drawn) [Compound 14H]: under “conc. 3.16 μM, percentage of the activity of the control, read-out: Agonist Activity”, the activation at 3.16 µM is greater than 60%.
`CC(C)(C)OC(=O)Nc1ccc(-c2nc(-c3ccc(CC(NC(=O)C4CCN(C(=O)OC(C)(C)C)CC4)C(=O)O)cc3F)no2)cc1` (stereo not drawn) [Compound 11R]: under setting [4], the activation at 10 µM was greater than 60%.
In the case of `CC(C)(C)OC(=O)Nc1ccc(-c2nc(-c3ccc(CC(NS(=O)(=O)NCc4ccccc4)C(=O)O)cc3F)no2)cc1` (stereo not drawn) [Compound 11Z], under setting [4], the activation at 10 µM fell in the range of 40 to 60%.
`CC(C)(C)OC(=O)Nc1ccc(-c2nc(-c3ccc(CC(NC(=O)Nc4ccc(-c5cccc(Cl)c5)cn4)C(=O)O)cc3F)no2)cc1` (stereo not drawn) [Compound 13V]: the activation at 10 µM under setting [4] is greater than 60%.
On the same count and under the same terms, as for `CC(C)(C)OC(=O)Nc1ccc(-c2nc(-c3ccc(CC(NC(=O)Nc4ccc(-c5ccc(OC(F)(F)F)cc5)cn4)C(=O)O)cc3F)no2)cc1` (stereo not drawn) [Compound 13N], the figure is greater than 60%.
Take `CC(C)(C)OC(=O)Nc1ccc(-c2nc(-c3ccc(CC(NC(=O)c4cnn(-c5ccc(C(C)(C)C)cc5)c4)C(=O)O)cc3F)no2)cc1` (stereo not drawn) [Compound 3A]: the activation at 3.16 µM under setting [3] is greater than 60%.
Turning to `CC(C)(C)OC(=O)Nc1ccc(-c2nc(-c3ccc(CC(NC(=O)Nc4ccc(N5CCCCC5)cc4)C(=O)O)cc3F)no2)cc1` (stereo not drawn) [Compound 4Y], the activation at 3 µM under setting [2] is 20 to 40%.
Turning to `CC(C)(C)OC(=O)Nc1ccc(C(=O)NC(C)(Cc2ccc(OC(=O)c3ccc(NC(=O)OC(C)(C)C)cc3)c(F)c2)C(=O)O)cc1` (stereo not drawn) [Compound 1B], under setting [3], the activation at 3.16 µM was greater than 60%.
For the molecule `CC(C)(C)OC(=O)Nc1ccc(-c2nc(-c3ccc(CC(NC(=O)N4CCN(c5ccc(Cl)cc5)CC4)C(=O)O)cc3F)no2)cc1` (stereo not drawn) [Compound 13A], under setting [4], the activation at 10 µM is greater than 60%.
Regarding `Cc1ccc(-c2ccc(C(=O)NC(Cc3ccc(-c4noc(-c5ccc(NC(=O)OC(C)(C)C)cc5)n4)c(F)c3)C(=O)O)o2)cc1Cl` (stereo not drawn) [Compound 1Q], the activation at 3.16 µM under setting [3] was greater than 60%.
For the molecule `CC(C)(C)OC(=O)Nc1ccc(-c2nc(-c3ccc(CC(NC(=O)c4cccc(-c5ccc(F)cc5)n4)C(=O)O)cc3F)no2)cc1` (stereo not drawn) [Compound 1T], the activation at 10 µM under setting [1] was in the range of 40 to 60%.
As for `Cc1ccc(-c2cccc(C(=O)N[C@@H](Cc3ccc(-c4noc(-c5ccc(NC(=O)OC(C)(C)C)cc5)n4)c(F)c3)C(=O)O)c2)cc1` [Compound 8E], under setting [2], the activation at 3 µM was greater than 60%.
`Cc1cc(C)c(S(=O)(=O)NC(Cc2ccc(-c3noc(-c4ccc(NC(=O)OC(C)(C)C)cc4)n3)c(F)c2)C(=O)O)c(C)c1` (stereo not drawn) [Compound 11I]: under setting [4], the activation at 10 µM was in the range of 40 to 60%.
Regarding `CC(C)Oc1ccc(-c2cccc(C(=O)N[C@H](Cc3ccc(-c4noc(-c5ccc(NC(=O)OC(C)(C)C)cc5)n4)c(F)c3)C(=O)O)c2)cc1` [Compound 6K], under setting [1], the activation at 10 µM was greater than 60%.
On the same count and under the same terms, as for `Cc1ccc(-c2ccc(C(=O)N[C@H](Cc3ccc(-c4cn(-c5ccc(NC(=O)OC(C)C)cc5)nn4)c(F)c3)C(=O)O)o2)cc1` [Compound 5Q], the figure is greater than 60%.
As to `CC(C)(C)OC(=O)Nc1ccc(-c2nc(-c3ccc(CC(NC(=O)c4cnn(-c5ccc(F)c(F)c5)c4)C(=O)O)cc3F)no2)cc1` (stereo not drawn) [Compound 2Z], under setting [3], the activation at 3.16 µM was greater than 60%.
Consider `CC(C)(C)OC(=O)Nc1ccc(-c2nc(-c3ccc(CC(NC(=O)N4CCN(c5ccc(Cl)cc5)CC4)C(=O)O)cc3F)no2)cc1` (stereo not drawn) [Compound 4K], for which the activation at 1 µM under setting [2] is greater than 60%.
In the case of `CC(C)(C)OC(=O)Nc1ccc(-c2nc(-c3ccc(CC(NC(=O)c4cccc(N5CCCCC5)c4)C(=O)O)cc3F)no2)cc1` (stereo not drawn) [Compound 11Y], under setting [4], the activation at 10 µM was in the range of 20 to 40%.
In the case of `CC(C)(C)OC(=O)Nc1ccc(-c2nc(-c3ccc(CC(NC(=O)C4CC4c4ccccc4)C(=O)O)cc3F)no2)cc1` (stereo not drawn) [Compound 1D], the activation at 3.16 µM under setting [3] is 20 to 40%.
In the case of `CC(C)(C)OC(=O)Nc1ccc(-c2nc(-c3ccc(CC(NC(=O)CN4CCN(C(=O)OC(C)(C)C)CC4)C(=O)O)cc3F)no2)cc1` (stereo not drawn) [Compound 11T], the activation at 10 µM under setting [4] lay in the range of 40 to 60%.
As to `Cc1cc(-n2cc(C(=O)NC(Cc3ccc(-c4noc(-c5ccc(NC(=O)OC(C)(C)C)cc5)n4)c(F)c3)C(=O)O)cn2)ccc1F` (stereo not drawn) [Compound 3G], the activation at 3 µM under setting [2] was in the range of 40 to 60%.
On to `Cc1cccc(CN2CCN(S(=O)(=O)NC(Cc3ccc(-c4noc(-c5ccc(NC(=O)OC(C)(C)C)cc5)n4)c(F)c3)C(=O)O)CC2)c1` (stereo not drawn) [Compound 4C], for which the activation at 1 µM under setting [2] was greater than 60%.
On to `Cc1ccc(-c2cncc(C(=O)NC(Cc3ccc(-c4noc(-c5ccc(NC(=O)OC(C)(C)C)cc5)n4)c(F)c3)C(=O)O)c2)cc1` (stereo not drawn) [Compound 14B], for which the activation at 10 µM under setting [4] was greater than 60%.
As to `Cn1c(C(=O)NC(Cc2ccc(-c3noc(-c4ccc(NC(=O)OC(C)(C)C)cc4)n3)c(F)c2)C(=O)O)cnc1-c1ccc(Cl)cc1` (stereo not drawn) [Compound 2Y], the activation at 3.16 µM under setting [3] was greater than 60%.
With `COc1ccc(-c2cncc(C(=O)NC(Cc3ccc(-c4noc(-c5ccc(NC(=O)OC(C)(C)C)cc5)n4)c(F)c3)C(=O)O)c2)cc1` (stereo not drawn) [Compound 14G], the activation at 10 µM under setting [4] was greater than 60%.
With `CC(C)(C)OC(=O)Nc1ccc(-c2nc(-c3ccc(CC(NC(=O)N4CCN(C(=O)OC(C)(C)C)CC4)C(=O)O)cc3F)no2)cc1` (stereo not drawn) [Compound 4F], the activation at 3.16 µM under setting [3] lay in the range of 40 to 60%.
As for `CC(C)(C)OC(=O)Nc1ccc(-c2nc(-c3ccc(CC(NC(=O)c4cccc(-c5ccc(F)cc5)c4)C(=O)O)cc3F)no2)cc1` (stereo not drawn) [Compound 1V], the activation at 1 µM under setting [2] was 40 to 60%.
Consider `Cc1ccc(-c2ccc(C(=O)N[C@H](Cc3cc(C)cc(-c4noc(-c5ccc(NC(=O)OC(C)(C)C)cc5)n4)c3)C(=O)O)o2)cc1` [Compound 2E], for which the activation at 3 µM under setting [2] was in the range of 40 to 60%.
On to `CC(C)(C)OC(=O)Nc1ccc(-c2nc(-c3ccc(CC(NC(=O)Nc4cc(-c5ccc(Cl)cc5)n[nH]4)C(=O)O)cc3F)no2)cc1` (stereo not drawn) [Compound 4I], for which the activation at 3.16 µM under setting [3] is greater than 60%.
With `CC(C)(C)OC(=O)Nc1ccc(-c2nc(-c3ccc(CC(NC(=O)c4cnc(-c5ccccc5)[nH]4)C(=O)O)cc3F)no2)cc1` (stereo not drawn) [Compound 1Y], the activation at 10 µM under setting [1] is greater than 60%.
As to `COc1ccc(-c2cc(NC(=O)NC(Cc3ccc(-c4noc(-c5ccc(NC(=O)OC(C)(C)C)cc5)n4)c(F)c3)C(=O)O)[nH]n2)cc1` (stereo not drawn) [Compound 12H], the activation at 10 µM under setting [4] was greater than 60%.
As to `CC(C)(C)OC(=O)Nc1ccc(-c2nc(-c3ccc(CC(NC(=O)c4cnn(-c5ccc(F)cc5)c4)C(=O)O)cc3F)no2)cc1` (stereo not drawn) [Compound 2T], under setting [1], the activation at 10 µM was greater than 60%.
